Blank lines part the entries; values can stand above or below the compound they belong to.
Columns and labels:
[1] = system: IMQ-induced, psoriasis-like skin inflammation; assay type: in vivo, C57BL/6 mice; details: for penetration of the skin: mouse, in vivo
Experimental: Western blot analysis was performed as described before. The following antibodies were used and purchased from Cell Signaling: anti-IκBζ (9244), anti-phospho-STAT3 at Tyr705 (9145), anti-phospho-STAT3 at Ser727 (9134), anti-STAT3 (12640), anti-p65 (8242), anti-EZH2 (5246), anti-pRB (phospho-RB at Ser807/811; 8516), anti-FoxM1 (5436), anti-H3 (4499), anti-CDK4 (12790), anti-CDK6 (13331), anti-CDK9 (2316), anti-cyclin D1 (2978), anti-cyclin D2 (3741), anti-cyclin D3 (2936), anti-cJUN (9165), anti-H3K27me3 (9733), anti-GAPDH (2118), anti-H3 (9715) and anti-β-actin (3700). Anti-β-Gal (sc377257) and anti-GFP (sc9996) were obtained from Santa Cruz Biotechnology. Anti-pEZH2 at T345 (61242) anti-pEZH2 at T487 (12820) were purchased from Active Motif and anti-pan-methyl-lysine antibody was purchased from Enzo (ADI-KAP-TF121-E). For detection of mouse IκB, a self-made antibody raised against peptides […] (SEQ ID NO:3) and […] (SEQ ID NO:4) was applied.
Gene expression analyses were performed as described. Relative gene expression was analyzed using self-designed primers ordered at Metabion (not shown). Relative mRNA levels were calculated by normalization to the human reference gene RPL37A or the mouse reference gene Actin using the 2-ΔΔCt method.
Experiments were conducted in accordance with the German law guide-lines of animal care. Ears of female C57BL/6 mice (8-12 weeks old) were topically treated for 6 consecutive days with 5 mg Aldara cream (containing 5% imiquimod, 3M Pharmaceutical) and 0.02 mg of abemaciclib (in 10 μL ethanol), 0.05 mg CPI-169 (in 10 μL ethanol) or vehicle control. At day 7, mice were sacrificed and analysed. For IL-36α-mediated psoriasis induction, ears of male C57BL/6 mice (8-12 weeks old) were treated by intradermal injections using 1 μg murine IL-36α (aa 8-160, R&D) or PBS control for 5 consecutive days. For application of the vehicle control, abemaciclib (0.02 mg) or CPI-169 (0.05 mg), substances were mixed with Miglyol 812 (Carl Roth) in a ratio of 1:4. Inhibitors were topically applicated 6 h before intradermal injections of IL-36α or PBS were applied. Mice were sacrificed and analysed at day 6.
Sample preparation was performed as described. The following anti-mouse antibodies from BioLegend were used: anti-CD45 FITC (103107), anti-CD11b PacificBlue (101223), anti-Ly6G PE (127607), anti-F4/80 APC (123115), anti-CD11c Pacific Blue (117322), anti-MHC-II APC (107613), anti-CD172a PE (144011) and anti-Silec-H PE (129605). Anti-PDCA-1 APC (17-2092-80) and anti-αβTCR PE (HM3628) were purchased from Invitrogen, and anti-γδ-TCR APC (17-5711-82) from Sigma. Data was acquired on a LSRII flow cytometer (Becton Dickson).
Ear sections from mice were fixed in 10% formalin (Carl Roth) and subsequently embedded in paraffin. 5-μm sections were prepared and incubated with the following antibodies from Cell Signaling: pSTAT3 (9145), pRB (8516) and H3K27me3 (9733). For staining of human skin samples, EZH2 antibody (Cell Signaling, 5246) was used. Antigen retrieval was performed in 1 mM EDTA pH 8.0 for pSTAT3, and 10 mM citrate buffer pH 6.0+0.5% Triton X-100 for EZH2, H3K27me3 and pRB. After incubation with peroxidase-coupled secondary antibodies, sections were stained with DAB substrate.

[2] = system: IL-36-triggered psoriasis-like dermatitis; assay: IL-36α-mediated psoriasis-like dermatitis mouse model, topical treatment of ears; assay type: in vivo, C57BL/6 mice
Experimental: Western blot analysis was performed as described before. The following antibodies were used and purchased from Cell Signaling: anti-IκBζ (9244), anti-phospho-STAT3 at […] (9145), anti-phospho-STAT3 at […] (9134), anti-STAT3 (12640), anti-p65 (8242), anti-EZH2 (5246), anti-pRB (phospho-RB at […]/811; 8516), anti-FoxM1 (5436), anti-H3 (4499), anti-CDK4 (12790), anti-CDK6 (13331), anti-CDK9 (2316), anti-cyclin D1 (2978), anti-cyclin D2 (3741), anti-cyclin D3 (2936), anti-cJUN (9165), anti-H3K27me3 (9733), anti-GAPDH (2118), anti-H3 (9715) and anti-β-actin (3700). Anti-β-Gal (sc377257) and anti-GFP (sc9996) were obtained from Santa Cruz Biotechnology. Anti-pEZH2 at […] (61242) anti-pEZH2 at […] (12820) were purchased from Active Motif and anti-pan-methyl-lysine antibody was purchased from Enzo ([…]). For detection of mouse IκB, a self-made antibody raised against peptides […] NO:3) and […] NO:4) was applied. Gene expression analyses were performed as described. Relative gene expression was analyzed using self-designed primers ordered at Metabion (not shown). Relative mRNA levels were calculated by normalization to the human reference gene RPL37A or the mouse reference gene Actin using the 2-ΔΔCt method. Experiments were conducted in accordance with the German law guide-lines of animal care. Ears of female C57BL/6 mice (8-12 weeks old) were topically treated for 6 consecutive days with 5 mg Aldara cream (containing 5% imiquimod, 3M Pharmaceutical) and 0.02 mg of abemaciclib (in 10 μL ethanol), 0.05 mg CPI-169 (in 10 μL ethanol) or vehicle control. At day 7, mice were sacrificed and analysed. For IL-36α-mediated psoriasis induction, ears of male C57BL/6 mice (8-12 weeks old) were treated by intradermal injections using 1 μg murine IL-36α (aa 8-160, R&D) or PBS control for 5 consecutive days. For application of the vehicle control, abemaciclib (0.02 mg) or CPI-169 (0.05 mg), substances were mixed with Miglyol 812 (Carl Roth) in a ratio of 1:4. Inhibitors were topically applicated 6 h before intradermal injections of IL-36α or PBS were applied. Mice were sacrificed and analysed at day 6. […]

[3] = system: TH1 cytokines and tumor-infiltrating T cells; details: experimental cancer model, Deng et al.; cited from earlier work
[4] = flow cytometry of IMQ-treated mouse ears, day 7

SMILES: CCS(=O)(=O)N1CCC([C@@H](C)n2c(C)c(C(=O)NCc3c(OC)cc(C)[nH]c3=O)c3ccccc32)CC1 [CPI-169]
IκBζ expression in the skin, phosphorylation of EZH2 at T345 and of STAT3 at Y705 ([1]; IMQ-treated mouse skin, day 7): completely abrogated | expression of IκBζ target genes (Cxcl2, Cxcl5) and DC- and T-cell-derived cytokines (Il17a, Il23a) ([1]; IMQ-treated skin, day 7): significantly downregulated | H3K27me3 expression in the epidermis (EZH2 inhibition) ([1]; ear skin sections of treated mice, FIG. 10c): loss | immune cell infiltration (neutrophils, macrophages and T cells) [1, 4]: fully abrogated | number of infiltrating plasmacytoid (pDC) and myeloid dendritic cells (mDC) [1, 4]: significantly suppressed | penetration of the skin [1]: effectively penetrated the skin | IMQ-induced, psoriasis-like skin inflammation (ear thickening, keratinocyte hyperproliferation, immune cell infiltration) ([1]; topical, daily 6 days, abemaciclib 0.02 mg, CPI-169 0.05 mg per ear): completely suppressed | IκBζ target gene expression and key cytokine expression (Il17a, Il23a) ([2]; IL-36α-treated skin, FIG. 12g): effectively blocked | keratinocyte hyperproliferation and immune cell infiltration ([2]; intradermal IL-36α 5 days, topical inhibitor, day 6): effectively blocked | IL-36-mediated expression of IκBζ, phosphorylation of EZH2 at T345 and activation of STAT3 (pSTAT3 Y705) ([2]; skin of treated mouse ears, day 6): suppressed

penetration of the skin [1]: effectively penetrated the skin
SMILES: CCN1CCN(Cc2ccc(Nc3ncc(F)c(-c4cc(F)c5nc(C)n(C(C)C)c5c4)n3)nc2)CC1 [abemaciclib]

SMILES: CN1CCN(c2ccc(Nc3ncc4cc5n(c4n3)C3(CCCCC3)CNC5=O)nc2)CC1 [trilaciclib]
levels of TH1 cytokines and tumor-infiltrating T cells [3]: increased
